Results published in paper PMC5050167 (Bioorganic & medicinal chemistry letters, 2016).
pEC50, pIC50: −log10 of the molar value. Values belong to the compound of their own block, whether it stands above or below them.

Key:
T antigen [1] = biological target: T1, T antigen (Simian virus 40, UniProt P03070); assay: ATPase activity of purified T antigen; format: biochemical, polyomavirus; conditions: for Fold change in ATPase activity of T antigen: compound 10 μM, purified T antigen, normalized to DMSO, mean of 3 experiments
T antigen [2] = biological target: T1, T antigen; conditions: cited from earlier work
human Hsp70 = human Hsp70 (Homo sapiens, UniProt P0DMV8); assay: Endogenous Hsp70 ATPase activity; format: biochemical
RMS13 and MCF7 cells = assay: Growth inhibition of the two cancer lines; format: cell-based; conditions: Homo sapiens, read-out: GI50 across the two cancer lines
Hsp70 + Hdj2 = Hsp70 + Hdj2 (Homo sapiens, UniProt P0DMV8); assay: Hsp40; format: biochemical; conditions: carboxylic acid in place of tetrazole
JC Virus = assay: JC virus replication in COS7 cells; format: cell-based; conditions: comparison with cidofovir
[3] = tested on: human foreskin fibroblasts; assay: Cytotoxicity in human foreskin fibroblasts; format: cell-based; conditions: in words

T1 sequence (P03070 whole entry): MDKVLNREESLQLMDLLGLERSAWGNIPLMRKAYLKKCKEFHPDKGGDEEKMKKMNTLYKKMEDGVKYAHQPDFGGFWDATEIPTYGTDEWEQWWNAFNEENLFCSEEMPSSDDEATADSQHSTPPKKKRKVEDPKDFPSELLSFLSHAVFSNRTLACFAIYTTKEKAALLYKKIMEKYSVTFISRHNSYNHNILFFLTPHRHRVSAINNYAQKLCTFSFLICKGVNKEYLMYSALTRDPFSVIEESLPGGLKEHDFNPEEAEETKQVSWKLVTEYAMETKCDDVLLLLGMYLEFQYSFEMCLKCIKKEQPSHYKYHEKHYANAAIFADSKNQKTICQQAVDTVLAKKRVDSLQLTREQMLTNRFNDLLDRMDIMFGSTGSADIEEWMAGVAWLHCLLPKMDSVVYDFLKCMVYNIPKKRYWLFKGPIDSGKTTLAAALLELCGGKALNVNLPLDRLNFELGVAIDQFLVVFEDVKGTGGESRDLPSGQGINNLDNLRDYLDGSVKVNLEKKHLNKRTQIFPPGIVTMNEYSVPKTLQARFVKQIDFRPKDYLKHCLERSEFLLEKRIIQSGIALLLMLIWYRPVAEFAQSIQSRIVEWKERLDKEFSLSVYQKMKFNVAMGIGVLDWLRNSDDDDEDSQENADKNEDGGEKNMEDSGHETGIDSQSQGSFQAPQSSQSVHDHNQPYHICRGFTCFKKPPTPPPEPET
Hsp70 + Hdj2, sequence (P0DMV8 whole entry): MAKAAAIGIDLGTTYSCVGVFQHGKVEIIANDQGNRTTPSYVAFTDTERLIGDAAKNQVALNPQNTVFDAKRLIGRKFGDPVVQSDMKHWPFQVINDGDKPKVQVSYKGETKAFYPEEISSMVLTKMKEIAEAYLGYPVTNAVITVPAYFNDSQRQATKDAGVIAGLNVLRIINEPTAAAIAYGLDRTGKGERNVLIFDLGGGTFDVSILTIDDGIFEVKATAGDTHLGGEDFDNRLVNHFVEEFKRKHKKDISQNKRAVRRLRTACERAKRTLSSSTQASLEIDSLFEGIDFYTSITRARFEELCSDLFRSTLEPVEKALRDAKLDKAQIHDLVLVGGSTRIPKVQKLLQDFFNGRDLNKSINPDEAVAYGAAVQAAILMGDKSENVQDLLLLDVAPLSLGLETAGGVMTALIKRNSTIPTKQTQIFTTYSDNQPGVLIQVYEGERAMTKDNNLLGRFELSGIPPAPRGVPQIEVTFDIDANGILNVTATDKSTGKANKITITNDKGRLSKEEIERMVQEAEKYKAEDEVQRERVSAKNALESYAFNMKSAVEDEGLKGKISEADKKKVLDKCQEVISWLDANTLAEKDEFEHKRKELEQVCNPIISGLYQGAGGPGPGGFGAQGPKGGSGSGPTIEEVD
human Hsp70, sequence (P0DMV8 whole entry): as above

SMILES: CC1=C(C(=O)OCc2ccccc2)C(c2ccc(-c3ccccc3)cc2)NC(=S)N1CCCCCc1nnn[nH]1 (centres unmarked) [AMT580-027]
Fold change in ATPase activity of T antigen (T antigen [1]): −2.1 fold

SMILES: CC1=C(C(=O)OCc2ccccc2)C(c2ccc(-c3ccccc3C)cc2)NC(=O)N1Cc1ccc(-c2nnn[nH]2)cc1 (centres unmarked) [SMAL]
pIC50 (T antigen [2]; read-out: IC50 T antigen ATPase activity): 5.30 | pEC50 (T antigen [2]; read-out: reported EC50 (T antigen ATPase)): ~5.30 | Effect on T antigen ATPase activity, in words (T antigen [1]; final concentration 10 μM): significantly reduced the ATPase activity of T antigen | Effect on endogenous Hsp70 ATPase activity, in words (human Hsp70): modestly inhibited

GI50 (RMS13 and MCF7 cells): 6 to 13 µM
SMILES: CCCCCCN(C(=O)CCCCCN1C(=O)NC(c2ccc(-c3ccccc3)cc2)C(C(=O)OCc2ccccc2)=C1C)C(C(=O)NCCCC)c1ccc(OCC(=O)OC)c(C(=O)OC)c1 (centres unmarked) [MAL3-101]

SMILES: CC1=C(C(=O)OCc2ccccc2)C(c2ccc(-c3ccccc3)cc2)NC(=O)N1CCCCCC(=O)O (centres unmarked) [MAL2-11B]
Fold change in ATPase activity of T antigen (T antigen [1]): −1.5 fold | Effect on Hsp40-dependent activation of Hsp70, in words (Hsp70 + Hdj2): either lacked inhibitory activity or modesty stimulated

SMILES: CC1=C(C(=O)OCc2ccccc2)C(c2ccc(-c3ccccc3C)cc2)NC(=O)N1CCCCCc1nnn[nH]1 (centres unmarked) [LR340-006]
Fold change in ATPase activity of T antigen (T antigen [1]): −2.1 fold

SMILES: CC1=C(C(=O)OCc2ccccc2)C(c2ccc(-c3ccccc3)cc2)N(Cc2ccc(-c3nnn[nH]3)cc2)C(=S)N1 (centres unmarked) [AMT580-043]
Fold change in ATPase activity of T antigen (T antigen [1]): −4.5 fold | Inhibition of polyomavirus replication in cell culture, in words (JC Virus): more potently than an existing drug, cidofovir

SMILES: Nc1ccn(C[C@@H](CO)OCP(=O)(O)O)c(=O)n1.O.O [Cidofovir]
Toxicity relative to the dihydropyrimidines [3]: significantly less toxic than the dihydropyrimidines

SMILES: CC1=C(C(=O)OCc2ccccc2)C(c2ccc(-c3ccccc3C)cc2)NC(=S)N1Cc1ccc(-c2nnn[nH]2)cc1 (centres unmarked) [AMT551-093]
Fold change in ATPase activity of T antigen (T antigen [1]): −7.7 fold

SMILES: CC1=C(C(=O)OCc2ccccc2)C(c2ccc(-c3ccccc3)cc2)NC(=S)N1Cc1ccc(-c2nnn[nH]2)cc1 (centres unmarked) [AMT551-078]
Fold change in ATPase activity of T antigen (T antigen [1]): −5.5 fold

SMILES: CC1=C(C(=O)OCc2ccccc2)C(c2ccc(-c3ccccc3)cc2)NC(=S)N1CCCCCC(=O)O (centres unmarked) [AMT551-090]
Fold change in ATPase activity of T antigen (T antigen [1]): −1.5 fold | Effect on Hsp40-dependent activation of Hsp70, in words (Hsp70 + Hdj2): either lacked inhibitory activity or modesty stimulated

SMILES: CC1=C(C(=O)OCc2ccccc2)C(c2ccc(-c3ccccc3)cc2)NC(=O)N1Cc1ccc(-c2nnn[nH]2)cc1 (centres unmarked) [ML282-56]
Fold change in ATPase activity of T antigen (T antigen [1]): −2.0 fold

SMILES: CC1=C(C(=O)OCc2ccccc2)C(c2ccc(-c3ccccc3)cc2)N(Cc2ccc(-c3nnn[nH]3)cc2)C(=O)N1 (centres unmarked) [AMT628-003]
Fold change in ATPase activity of T antigen (T antigen [1]): −2.3 fold

SMILES: CC1=C(C(=O)OCc2ccccc2)C(c2ccc(-c3ccccc3)cc2)N(CCCCCC(=O)O)C(=S)N1 (centres unmarked) [AMT551-071]
Fold change in ATPase activity of T antigen (T antigen [1]): −1.6 fold

SMILES: CC1=C(C(=O)OCc2ccccc2)C(c2ccc(-c3ccccc3C)cc2)N(Cc2ccc(-c3nnn[nH]3)cc2)C(=S)N1 (centres unmarked) [AMT551-058]
Fold change in ATPase activity of T antigen (T antigen [1]): −7.5 fold

SMILES: CC1=C(C(=O)OCc2ccccc2)C(c2ccc(-c3ccccc3)cc2)NC(=O)N1CCCCCc1nnn[nH]1 (centres unmarked) [BQU015242]
Fold change in ATPase activity of T antigen (T antigen [1]): −1.4 fold | Effect on endogenous Hsp70 ATPase activity, in words (human Hsp70): modestly inhibited

SMILES: CC1=C(C(=O)OCc2ccccc2)C(c2ccc(-c3ccccc3C)cc2)NC(=S)N1CCCCCc1nnn[nH]1 (centres unmarked) [AMT580-033]
Fold change in ATPase activity of T antigen (T antigen [1]): −4.7 fold
